# Assay results from US11793849B2, “Method of Chinese herbal medicine extract used for treating multiple diseases caused by drug resistant bacteria infection” (priority 2016, dated 2023).
# System: MDRAB
# Assay: Checkerboard assay (combined-use MIC, FIC)
# Assay type: cell-based, Acinetobacter baumannii
# Details: for FIC, all strains / MIC50 of the antibiotic after combined use / MIC90 of the antibiotic after combined use / reduction of the antibiotic's MIC50 vs single use / reduction of the antibiotic's MIC90 vs single use / share of strains with FIC ≤ 0.5: 20 MDRABs
# How it was run: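 Checkerboard combinations of S20b and antibiotic run per NCCLS method against ESBL E. coli, MDR A. baumannii and MDR P. aeruginosa.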
# [1] = antibiotic with 60% ethanol extract
# [2] = antibiotic with 95% ethanol extract
# [3] = antibiotic with EA (10% ethanol extract)
# [4] = antibiotic with EA (water extract)
substance,measurement,setting,value
Polymycin B [POLB],"FIC, all strains",[1],≤ 2
same,MIC50 of the antibiotic after combined use,[1],0.5 µg/mL
same,MIC90 of the antibiotic after combined use,[1],4 µg/mL
same,reduction of the antibiotic's MIC50 vs single use,[1],87.5%
same,reduction of the antibiotic's MIC90 vs single use,[1],75%
same,share of strains with FIC ≤ 0.5,[1],15%
same,"FIC, all strains",[2],≤ 2
same,MIC50 of the antibiotic after combined use,[2],1 µg/mL
same,MIC90 of the antibiotic after combined use,[2],4 µg/mL
same,reduction of the antibiotic's MIC50 vs single use,[2],75%
same,reduction of the antibiotic's MIC90 vs single use,[2],75%
same,share of strains with FIC ≤ 0.5,[2],20%
same,"FIC, all strains",[3],≤ 2
same,MIC50 of the antibiotic after combined use,[3],1 µg/mL
same,MIC90 of the antibiotic after combined use,[3],4 µg/mL
same,reduction of the antibiotic's MIC50 vs single use,[3],75%
same,reduction of the antibiotic's MIC90 vs single use,[3],75%
same,share of strains with FIC ≤ 0.5,[3],15%
same,"FIC, all strains",[4],≤ 2
same,MIC50 of the antibiotic after combined use,[4],1 µg/mL
same,MIC90 of the antibiotic after combined use,[4],4 µg/mL
same,reduction of the antibiotic's MIC50 vs single use,[4],75%
same,reduction of the antibiotic's MIC90 vs single use,[4],75%
same,share of strains with FIC ≤ 0.5,[4],25%
same,combined-use MIC,"strain A1, EA (10% ethanol extract) with POLB",4 µg/mL
same,combined-use MIC,"strain A1, EA (60% ethanol extract) + POLB combined",4 µg/mL
same,combined-use MIC,"strain A1, EA (95% ethanol extract) + POLB combined",4 µg/mL
same,combined-use MIC,"strain A1, EA (water extract) with POLB",4 µg/mL
same,single-use MIC,"strain A1, EA=60% ethanol extract",8 µg/mL
same,single-use MIC,"strain A1, EA=95% ethanol extract",8 µg/mL
same,combined-use MIC,"strain A2, EA (10% ethanol extract) with POLB",1 µg/mL
same,combined-use MIC,"strain A2, EA (60% ethanol extract) + POLB combined",0.5 µg/mL
same,combined-use MIC,"strain A2, EA (95% ethanol extract) + POLB combined",0.5 µg/mL
same,combined-use MIC,"strain A2, EA (water extract) with POLB",1 µg/mL
same,single-use MIC,"strain A2, EA=60% ethanol extract",2 µg/mL
same,single-use MIC,"strain A2, EA=95% ethanol extract",2 µg/mL
same,combined-use MIC,"strain A3, EA (10% ethanol extract) with POLB",1 µg/mL
same,combined-use MIC,"strain A3, EA (60% ethanol extract) + POLB combined",1 µg/mL
same,combined-use MIC,"strain A3, EA (95% ethanol extract) + POLB combined",1 µg/mL
same,combined-use MIC,"strain A3, EA (water extract) with POLB",0.5 µg/mL
same,single-use MIC,"strain A3, EA=60% ethanol extract",2 µg/mL
same,single-use MIC,"strain A3, EA=95% ethanol extract",2 µg/mL
same,combined-use MIC,"strain A4, EA (10% ethanol extract) with POLB",1 µg/mL
same,combined-use MIC,"strain A4, EA (60% ethanol extract) + POLB combined",1 µg/mL
same,combined-use MIC,"strain A4, EA (95% ethanol extract) + POLB combined",1 µg/mL
same,combined-use MIC,"strain A4, EA (water extract) with POLB",0.5 µg/mL
same,single-use MIC,"strain A4, EA=60% ethanol extract",2 µg/mL
same,single-use MIC,"strain A4, EA=95% ethanol extract",2 µg/mL
same,single-use MIC,"strain A5 (printed AS in tables A43, A45), EA=95% ethanol extract",4 µg/mL
same,combined-use MIC,"strain A5, EA (10% ethanol extract) with POLB",1 µg/mL
same,combined-use MIC,"strain A5, EA (60% ethanol extract) + POLB combined",2 µg/mL
same,combined-use MIC,"strain A5, EA (water extract) with POLB",0.5 µg/mL
same,single-use MIC,"strain A5, EA=60% ethanol extract",4 µg/mL
same,combined-use MIC,"strain A6, EA (10% ethanol extract) with POLB",1 µg/mL
same,combined-use MIC,"strain A6, EA (60% ethanol extract) + POLB combined",2 µg/mL
same,combined-use MIC,"strain A6, EA (95% ethanol extract) + POLB combined",2 µg/mL
same,combined-use MIC,"strain A6, EA (water extract) with POLB",2 µg/mL
same,single-use MIC,"strain A6, EA=60% ethanol extract",8 µg/mL
same,single-use MIC,"strain A6, EA=95% ethanol extract",8 µg/mL
same,combined-use MIC,"strain A7, EA (10% ethanol extract) with POLB",1 µg/mL
same,combined-use MIC,"strain A7, EA (60% ethanol extract) + POLB combined",2 µg/mL
same,combined-use MIC,"strain A7, EA (95% ethanol extract) + POLB combined",2 µg/mL
same,combined-use MIC,"strain A7, EA (water extract) with POLB",1 µg/mL
same,single-use MIC,"strain A7, EA=60% ethanol extract",4 µg/mL
same,single-use MIC,"strain A7, EA=95% ethanol extract",4 µg/mL
same,combined-use MIC,"strain A8, EA (10% ethanol extract) with POLB",0.0625 µg/mL
same,combined-use MIC,"strain A8, EA (60% ethanol extract) + POLB combined",0.0625 µg/mL
same,combined-use MIC,"strain A8, EA (95% ethanol extract) + POLB combined",1 µg/mL
same,combined-use MIC,"strain A8, EA (water extract) with POLB",0.0625 µg/mL
same,single-use MIC,"strain A8, EA=60% ethanol extract",8 µg/mL
same,single-use MIC,"strain A8, EA=95% ethanol extract",8 µg/mL
same,combined-use MIC,"strain A9, EA (10% ethanol extract) with POLB",0.0625 µg/mL
same,combined-use MIC,"strain A9, EA (60% ethanol extract) + POLB combined",0.0625 µg/mL
same,combined-use MIC,"strain A9, EA (95% ethanol extract) + POLB combined",0.25 µg/mL
same,combined-use MIC,"strain A9, EA (water extract) with POLB",0.0625 µg/mL
same,single-use MIC,"strain A9, EA=60% ethanol extract",1 µg/mL
same,single-use MIC,"strain A9, EA=95% ethanol extract",1 µg/mL
same,combined-use MIC,"strain A10, EA (10% ethanol extract) with POLB",4 µg/mL
same,combined-use MIC,"strain A10, EA (60% ethanol extract) + POLB combined",8 µg/mL
same,combined-use MIC,"strain A10, EA (95% ethanol extract) + POLB combined",8 µg/mL
same,combined-use MIC,"strain A10, EA (water extract) with POLB",8 µg/mL
same,single-use MIC,"strain A10, EA=60% ethanol extract",32 µg/mL
same,single-use MIC,"strain A10, EA=95% ethanol extract",32 µg/mL
same,combined-use MIC,"strain A11, EA (10% ethanol extract) with POLB",8 µg/mL
same,combined-use MIC,"strain A11, EA (60% ethanol extract) + POLB combined",4 µg/mL
same,combined-use MIC,"strain A11, EA (95% ethanol extract) + POLB combined",4 µg/mL
same,combined-use MIC,"strain A11, EA (water extract) with POLB",4 µg/mL
same,single-use MIC,"strain A11, EA=60% ethanol extract",16 µg/mL
same,single-use MIC,"strain A11, EA=95% ethanol extract",16 µg/mL
same,combined-use MIC,"strain A12, EA (10% ethanol extract) with POLB",1 µg/mL
same,combined-use MIC,"strain A12, EA (60% ethanol extract) + POLB combined",0.5 µg/mL
same,combined-use MIC,"strain A12, EA (95% ethanol extract) + POLB combined",1 µg/mL
same,combined-use MIC,"strain A12, EA (water extract) with POLB",0.0625 µg/mL
same,single-use MIC,"strain A12, EA=60% ethanol extract",2 µg/mL
same,single-use MIC,"strain A12, EA=95% ethanol extract",2 µg/mL
same,combined-use MIC,"strain A13, EA (10% ethanol extract) with POLB",1 µg/mL
same,combined-use MIC,"strain A13, EA (60% ethanol extract) + POLB combined",1 µg/mL
same,combined-use MIC,"strain A13, EA (95% ethanol extract) + POLB combined",1 µg/mL
same,combined-use MIC,"strain A13, EA (water extract) with POLB",1 µg/mL
same,single-use MIC,"strain A13, EA=60% ethanol extract",2 µg/mL
same,single-use MIC,"strain A13, EA=95% ethanol extract",2 µg/mL
same,combined-use MIC,"strain A14, EA (10% ethanol extract) with POLB",0.0625 µg/mL
same,combined-use MIC,"strain A14, EA (60% ethanol extract) + POLB combined",0.0625 µg/mL
same,combined-use MIC,"strain A14, EA (95% ethanol extract) + POLB combined",0.25 µg/mL
same,combined-use MIC,"strain A14, EA (water extract) with POLB",0.0625 µg/mL
same,single-use MIC,"strain A14, EA=60% ethanol extract",0.5 µg/mL
same,single-use MIC,"strain A14, EA=95% ethanol extract",0.5 µg/mL
same,combined-use MIC,"strain A15, EA (10% ethanol extract) with POLB",1 µg/mL
same,combined-use MIC,"strain A15, EA (60% ethanol extract) + POLB combined",0.0625 µg/mL
same,combined-use MIC,"strain A15, EA (95% ethanol extract) + POLB combined",0.0625 µg/mL
same,combined-use MIC,"strain A15, EA (water extract) with POLB",0.0625 µg/mL
same,single-use MIC,"strain A15, EA=60% ethanol extract",2 µg/mL
same,single-use MIC,"strain A15, EA=95% ethanol extract",2 µg/mL
same,combined-use MIC,"strain A16, EA (10% ethanol extract) with POLB",1 µg/mL
same,combined-use MIC,"strain A16, EA (60% ethanol extract) + POLB combined",0.0625 µg/mL
same,combined-use MIC,"strain A16, EA (95% ethanol extract) + POLB combined",0.0625 µg/mL
same,combined-use MIC,"strain A16, EA (water extract) with POLB",0.0625 µg/mL
same,single-use MIC,"strain A16, EA=60% ethanol extract",4 µg/mL
same,single-use MIC,"strain A16, EA=95% ethanol extract",4 µg/mL
same,combined-use MIC,"strain A17, EA (10% ethanol extract) with POLB",16 µg/mL
same,combined-use MIC,"strain A17, EA (60% ethanol extract) + POLB combined",2 µg/mL
same,combined-use MIC,"strain A17, EA (95% ethanol extract) + POLB combined",4 µg/mL
same,combined-use MIC,"strain A17, EA (water extract) with POLB",2 µg/mL
same,single-use MIC,"strain A17, EA=60% ethanol extract",64 µg/mL
same,single-use MIC,"strain A17, EA=95% ethanol extract",64 µg/mL
same,combined-use MIC,"strain A18, EA (10% ethanol extract) with POLB",1 µg/mL
same,combined-use MIC,"strain A18, EA (60% ethanol extract) + POLB combined",0.5 µg/mL
same,combined-use MIC,"strain A18, EA (95% ethanol extract) + POLB combined",1 µg/mL
same,combined-use MIC,"strain A18, EA (water extract) with POLB",2 µg/mL
same,single-use MIC,"strain A18, EA=60% ethanol extract",4 µg/mL
same,single-use MIC,"strain A18, EA=95% ethanol extract",4 µg/mL
same,combined-use MIC,"strain A19, EA (10% ethanol extract) with POLB",1 µg/mL
same,combined-use MIC,"strain A19, EA (60% ethanol extract) + POLB combined",0.5 µg/mL
same,combined-use MIC,"strain A19, EA (95% ethanol extract) + POLB combined",1 µg/mL
same,combined-use MIC,"strain A19, EA (water extract) with POLB",2 µg/mL
same,single-use MIC,"strain A19, EA=60% ethanol extract",4 µg/mL
same,single-use MIC,"strain A19, EA=95% ethanol extract",4 µg/mL
same,combined-use MIC,"strain A20, EA (10% ethanol extract) with POLB",1 µg/mL
same,combined-use MIC,"strain A20, EA (60% ethanol extract) + POLB combined",0.5 µg/mL
same,combined-use MIC,"strain A20, EA (95% ethanol extract) + POLB combined",0.5 µg/mL
same,combined-use MIC,"strain A20, EA (water extract) with POLB",1 µg/mL
same,single-use MIC,"strain A20, EA=60% ethanol extract",2 µg/mL
same,single-use MIC,"strain A20, EA=95% ethanol extract",2 µg/mL
same,combined-use MIC,"strain AS, EA (95% ethanol extract) + POLB combined",2 µg/mL
